Series [1] can be described thus: Astaxanthin solubility in essential oils. Format: physicochemical. Here is the method:
(§1) Astaxanthin was dissolved in each oil until visibly saturated. The sample was then blanketed with argon and sonicated for ten minutes. When the sample was completely saturated, the solution was transferred to a micro centrifuge tube and centrifuged at 14,000 rpm for 10 minutes. The clarified oil was then analyzed for astaxanthin content. The method for analyzing lutein crystals was used to analyze astaxanthin, however, a few modifications were made. First, methylene chloride was substituted for […] when dissolving the samples. […] When determining total carotenoids, the absorbance was measured at 470 nm rather than 446 nm. [formula] [formula] [formula] Canthaxanthin in Essentials Oils

The conditions of series [2]: cited from earlier work.
A short description of series [3]: Beta-carotene solubility in essential oils. Format: physicochemical. Here is the method: Beta-carotene was dissolved in each oil until visibly saturated. The sample was then blanketed with argon and sonicated for ten minutes. When the sample was completely saturated, the solution was transferred to a micro centrifuge tube and centrifuged at 14,000 rpm for 10 minutes. The clarified oil was then analyzed for beta-carotene content. The method for analyzing lutein crystals, with a few modifications, was used to analyze beta-carotene. First, methylene chloride was substituted for […] when dissolving the samples. Second, when determining total carotenoids, the absorbance was measured at 453 nm rather than 446 nm. [formula] [formula] [formula]
% Beta Carotene=% Carotenoids*(% Total HPLC area of Beta Carotene/100)

Series [4] is classed as physicochemical. The protocol: as §1, with “Canthaxanthin” for “Astaxanthin”, “microcentrifuge” for “micro centrifuge”, “canthaxanthin” for “astaxanthin”, “canthaxanthin,” for “astaxanthin,”, “466” for “470”, “Results and Discussion” for “[formula] Canthaxanthin in Essentials Oils”
The conditions of series [5]: consumption of lutein and zeaxanthin; Seddon et al., 1994; cited from earlier work.
A short description of series [6]: Zeaxanthin solubility in essential oils. Format: physicochemical. The protocol: as §1, with “Zeaxanthin” for “Astaxanthin”, “zeaxanthin” for “astaxanthin”, “zeaxanthin,” for “astaxanthin,”, “450” for “470”, “[formula]” for “[formula] Canthaxanthin in Essentials Oils”
% Zeaxanthin=% Carotenoids*(% Total HPLC area of zeaxanthin/100)

Setting [7] is: in Carvacrol (clear oil), 282-197, lot 13403CI.
[8] abbreviates: in Spearmint oil, 05-6250-11, lot SP43-0208.
Where [9] appears, read: in Thyme oil, White, 05-6275-01, lot TLC11-T049.
[10] abbreviates: in Bay oil, 50-6025-01, lot BA41-0484.
The mark [11] stands for this setting: in Cornmint, redistilled oil, 50-6100-01, lot CR43-0155.
[12] abbreviates: in Peppermint, Yakima redistilled oil, 50-6225-21, lot PY43-0157.
[13] abbreviates: in Spearmint, redistilled oil, 50-6250-11, lot 39SR-0163.
Setting [14] is: in Tea Tree oil, 50-6270-01, lot TX43-0146.
Setting [15] is: in Thyme, Pure oil, 50-6275-04, lot TP41-0053.
Setting [16] is: in Thyme, Red oil, 50-6275-02, lot TR43-0158.
[17] abbreviates: in Thyme, White oil, 50-6275-01, lot TLC11-T477.
The mark [18] stands for this setting: in Thyme, White (NOW) oil, 7635.

Values joined by “and” are separate entries in the source; they are usually repeats but may differ in a detail not shown here. Identical values can stand only once. Like-named read-outs stand apart in the source and are kept apart here.

Turning to `CC1=C(/C=C/C(C)=C/C=C/C(C)=C/C=C/C=C(C)/C=C/C=C(C)/C=C/C2=C(C)C(=O)[C@@H](O)CC2(C)C)C(C)(C)C[C@H](O)C1=O` [Astaxanthin, astaxanthin], the “% Astaxanthin by HPLC” value was 0.2420% in series [1] (setting [7]); about 0.24% in series [1] (in Carvacrol (clear oil), 282-197, lot 13403CI, listed as astaxanthin); 0.0301% in series [1] (setting [8]); 0.1876% in series [1] (setting [9]). Further, the “times less soluble than lutein” value is on record as 33 times in series [1] (in spearmint oil) and 16 times in series [1] (in white thyme oil).

With `CC1=C(/C=C/C(C)=C/C=C/C(C)=C/C=C/C=C(C)/C=C/C=C(C)/C=C/C2=C(C)CCCC2(C)C)C(C)(C)CCC1` [Beta-carotene, β-carotene], in series [2] (in "fats and oils"), the reported solubility was 0.05-0.08%. Further, the “% Beta-Carotene” value was 0.16% and 0.163% in series [3] (setting [10]); 0.252% in series [3] (setting [11]); 0.263% in series [3] (setting [12]); 0.532% in series [3] (setting [13]); 0.427% in series [3] (setting [14]); 0.245% in series [3] (setting [15]). In addition, the entries for the “% Beta-Carotene” value in series [3] (setting [16]) and in series [3] (setting [17]) were 0.267% and 0.273%, respectively.

`CC1=C(/C=C/C(C)=C/C=C/C(C)=C/C=C/C=C(C)/C=C/C=C(C)/C=C/C2=C(C)C(=O)CCC2(C)C)C(C)(C)CCC1=O` [Canthaxanthin, canthaxanthin]: the “% Canthaxanthin by HPLC” value in series [4] (setting [7]) is 0.0020%; in series [4] (setting [8]), 0.0028%; in series [4] (setting [9]), 0.0036%.

For `CC1=C(/C=C/C(C)=C/C=C/C(C)=C/C=C/C=C(C)/C=C/C=C(C)/C=C/C2=C(C)C[C@@H](O)CC2(C)C)C(C)(C)C[C@H](O)C1` [Zeaxanthin, zeaxanthin], in series [2] (in corn oil), the reported solubility is listed as 0.004%. The “reduction in age-related macular degeneration” value in series [5] is given as 57%. For the same compound, the “% Carotenoids” value in series [6] (setting [10]) was determined as 0.281%; in series [6] (setting [11]), 0.403%; in series [6] (setting [12]), 0.452%; in series [6] (setting [13]), 0.374%; in series [6] (in Tea Tree (NOW) oil, 7625), 0.398%; in series [6] (setting [14]), 0.364%. Further, the “% Carotenoids” value is listed as 0.920% in series [6] (setting [15]), 1.063% in series [6] (setting [16]), 0.784% in series [6] (setting [18]) and 1.049% in series [6] (setting [17]). Also, the “% Zeaxanthin” value in series [6] (setting [10]) is recorded as 0.276%; in series [6] (setting [11]) it was 0.397%; in series [6] (setting [12]), 0.446%; in series [6] (setting [13]), 0.369%; in series [6] (in Tea Tree (NOW) oil, 7625), 0.394%; in series [6] (setting [14]) it was 0.361%. Besides, the “% Zeaxanthin” value in series [6] (setting [15]) is 0.916%; in series [6] (setting [16]) it was 1.059%; in series [6] (setting [18]), 0.782%; in series [6] (setting [17]) it was 1.043%. In addition, the zeaxanthin solubility entry in series [6] (in all of the oils except the thyme oils) was “less than 1%”; in series [6] (in thyme oil) it was about 1%.

The record behind these values is patent US6844020B2, “Solutions of carotenoids for use in foods and personal care products” (Kemin Foods, L.C., priority 2002, dated 2005).
